Laboratory results from ChEMBL document CHEMBL6096719, “Kidney Targeting Smart Antibiotic Discovery: Multimechanism Pleuromutilins for Pyelonephritis Therapy” (J Med Chem, 2025).
Activity calls are given as the source filed them. No cut-off for these calls is given here.

How the values were obtained:
[1] = test system: Staphylococcus aureus; test: Antibacterial activity against Staphylococcus aureus ATCC 29213 assessed as inhibition of bacterial growth incubated for 24 hrs by broth microdilution method; assay type: functional
[2] = test system: Enterococcus; test: Antibacterial activity against vancomycin-resistant Enterococcus 80 assessed as inhibition of bacterial growth incubated for 24 hrs by broth microdilution method; assay type: functional
[3] = test system: Pseudomonas aeruginosa; test: Antibacterial activity against multidrug-resistant Pseudomonas aeruginosa 126 assessed as inhibition of bacterial growth incubated for 24 hrs by broth microdilution method; assay type: functional
[4] = test system: Acinetobacter baumannii; test: Antibacterial activity against carbapenem-resistant Acinetobacter baumannii 882 assessed as inhibition of bacterial growth incubated for 24 hrs by broth microdilution method; assay type: functional
[5] = Cytotoxicity against human HepG2 cells assessed as reduction in cell viability incubated for 24 hrs by CCK8 assay; assay type: toxicity, cell-based
[6] = biological target: Voltage-gated inwardly rectifying potassium channel KCNH2 (Homo sapiens, UniProt Q12809); test: Inhibition of hERG expressed in HEK293 cells assessed as inhibition of tail current measured at holding potential of -80 mV by automated patch clamp analysis; assay type: toxicity, cell-based
Voltage-gated inwardly rectifying potassium channel KCNH2, sequence (Q12809 whole entry): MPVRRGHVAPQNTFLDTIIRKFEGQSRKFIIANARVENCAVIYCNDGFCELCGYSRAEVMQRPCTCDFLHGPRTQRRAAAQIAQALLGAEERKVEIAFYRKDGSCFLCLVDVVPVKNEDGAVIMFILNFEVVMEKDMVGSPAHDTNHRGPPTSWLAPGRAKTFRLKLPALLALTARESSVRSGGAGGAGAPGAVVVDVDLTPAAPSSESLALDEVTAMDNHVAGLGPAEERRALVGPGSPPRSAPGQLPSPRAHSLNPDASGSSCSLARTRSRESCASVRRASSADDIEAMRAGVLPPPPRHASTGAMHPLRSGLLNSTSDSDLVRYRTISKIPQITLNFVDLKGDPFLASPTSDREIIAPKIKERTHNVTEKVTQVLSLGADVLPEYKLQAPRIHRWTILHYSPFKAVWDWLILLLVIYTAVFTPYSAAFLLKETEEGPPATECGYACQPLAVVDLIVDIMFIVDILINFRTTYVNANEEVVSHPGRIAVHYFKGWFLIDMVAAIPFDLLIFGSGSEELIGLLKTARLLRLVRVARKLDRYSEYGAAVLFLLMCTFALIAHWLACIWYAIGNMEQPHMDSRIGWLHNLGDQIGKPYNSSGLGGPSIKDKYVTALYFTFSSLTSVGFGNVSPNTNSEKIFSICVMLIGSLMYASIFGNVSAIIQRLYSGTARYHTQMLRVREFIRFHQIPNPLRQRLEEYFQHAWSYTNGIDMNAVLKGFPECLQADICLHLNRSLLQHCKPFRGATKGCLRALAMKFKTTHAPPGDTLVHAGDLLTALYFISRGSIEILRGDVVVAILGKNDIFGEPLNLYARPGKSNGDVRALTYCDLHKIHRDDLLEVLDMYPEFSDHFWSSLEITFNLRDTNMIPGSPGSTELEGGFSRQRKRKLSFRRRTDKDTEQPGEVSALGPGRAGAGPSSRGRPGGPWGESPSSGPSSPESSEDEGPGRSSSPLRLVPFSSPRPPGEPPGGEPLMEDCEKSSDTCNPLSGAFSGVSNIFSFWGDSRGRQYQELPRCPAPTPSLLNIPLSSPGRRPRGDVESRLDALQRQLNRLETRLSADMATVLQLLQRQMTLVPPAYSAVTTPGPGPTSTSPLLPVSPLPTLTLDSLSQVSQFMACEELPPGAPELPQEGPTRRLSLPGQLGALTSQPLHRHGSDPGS

[7] = test system: Mycoplasmoides pneumoniae; test: Anti-mycoplasma activity against Mycoplasma pneumoniae M129 ATCC29342 assessed as inhibition of bacterial growth incubated for 3 to 5 days by broth microdilution method; assay type: functional; settings: time 3-5 day
[8] = test system: Chlamydia pneumoniae; test: Anti-mycoplasma activity against Chlamydophila pneumoniae AR39 ATCC53592 assessed as inhibition of bacterial growth incubated for 3 to 5 days by broth microdilution method; assay type: functional; settings: time 3-5 day
[9] = test system: Metamycoplasma hominis; test: Anti-mycoplasma activity against Mycoplasma hominis PG-21 ATCC23114 assessed as inhibition of bacterial growth incubated for 1 to 2 days by broth microdilution method; assay type: functional; settings: time 1-2 day
[10] = test system: Mycoplasma genitalium; test: Anti-mycoplasma activity against Mycoplasma genitalium G37 ATCC33530 assessed as inhibition of bacterial growth incubated for 7 to 14 days by broth microdilution method; assay type: functional; settings: Mycoplasmoides genitalium, time 7-14 day
[11] = test system: Escherichia coli; test: Antibacterial activity against Escherichia coli ATCC25922 assessed as post-antibiotic effect at 0.25 ug/ml incubated for 1 hr followed by washing and incubation in MHB medium for 10 hrs and later cultured on agar plate for overnight; assay type: functional; settings: dose 0.25 µg/ml
[12] = test system: Escherichia coli; test: Antibiofilm activity against Escherichia coli ATCC25922 assessed as eradication of preformed biofilms incubated for 24 hrs with preformed biofilms by crystal violet staining based analysis; assay type: functional, organism-based; settings: dose 0.125-0.5 µg/ml
[13] = test system: Escherichia coli; test: Antibiofilm activity against Escherichia coli ATCC25922 assessed as eradication of biofilms at 0.5 ug/ml incubated for 4 hrs by field emission scanning electron microscopy; assay type: functional, organism-based; settings: dose 0.5 µg/ml
[14] = test system: Cell membrane; test: Disruption of cell membrane in methicillin-resistant Staphylococcus aureus ATCC33591 assessed as disrupted, furrowed, crumpled cell envelope at 0.125 to 0.5 ug/ml incubated for 2 hrs by propidium iodide staining based confocal laser scanning microscopy; assay type: subcellular; settings: dose 0.125-0.5 µg/ml
[15] = test system: Cell membrane; test: Disruption of cell membrane in Escherichia coli ATCC25922 assessed as decrease in intracellular ATP content at 0.125 to 0.25 ug/ml incubated for 30 mins by luminescence based analysis; settings: dose 0.125-0.25 µg/ml
[16] = test system: Staphylococcus aureus; test: Antibacterial activity against methicillin-resistant Staphylococcus aureus ATCC33591 infected in systemic intraperitoneal infection Kunming mouse model assessed as increase in animal's survival rate at 5 to 20 mg/kg, ip treated at 1 hr post-infection and measured for 7 days; assay type: functional, organism-based; settings: dose 5-20 mg/kg, time 7.0 day
[17] = test system: Staphylococcus aureus; test: (§1) Antibacterial activity against methicillin-resistant Staphylococcus aureus ATCC33591 infected in systemic intraperitoneal infection Kunming mouse model assessed as decrease in inflammation and neutrophil infiltration in kidney at 5 mg/kg, ip treated at 1 hr post-infection and measured after 7 days by Hematoxylin-Eosin staining based analysis; assay type: functional, organism-based; settings: time 7.0 day
[18] = test system: Staphylococcus aureus; test: as §1, with “inflammation,” for “inflammation and”, “and disordered spleen structure” for “in kidney”; assay type: functional, organism-based; settings: time 7.0 day
[19] = biological target: Solute carrier family 22 member 1 (Homo sapiens, UniProt O15245); test: Substrate activity at human OCT1 transfected in HEK293 cells assessed as increase in intracellular drug content at 100 uM measured after 5 mins; assay type: ADME, cell-based; settings: hek293, 5 min
Solute carrier family 22 member 1, sequence (O15245 whole entry): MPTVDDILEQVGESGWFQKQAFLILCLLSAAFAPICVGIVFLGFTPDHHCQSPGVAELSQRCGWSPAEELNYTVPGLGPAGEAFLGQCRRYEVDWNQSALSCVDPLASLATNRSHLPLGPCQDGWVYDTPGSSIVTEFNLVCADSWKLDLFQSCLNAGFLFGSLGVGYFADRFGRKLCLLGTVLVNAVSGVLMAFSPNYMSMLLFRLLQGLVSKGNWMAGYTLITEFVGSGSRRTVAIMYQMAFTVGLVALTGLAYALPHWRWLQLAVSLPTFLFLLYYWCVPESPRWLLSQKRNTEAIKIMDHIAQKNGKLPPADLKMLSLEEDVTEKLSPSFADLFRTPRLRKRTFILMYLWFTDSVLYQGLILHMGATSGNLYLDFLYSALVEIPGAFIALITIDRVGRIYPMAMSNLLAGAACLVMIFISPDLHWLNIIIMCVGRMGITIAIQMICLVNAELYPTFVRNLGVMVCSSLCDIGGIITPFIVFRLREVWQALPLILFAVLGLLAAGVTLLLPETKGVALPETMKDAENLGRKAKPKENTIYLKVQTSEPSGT

[20] = biological target: T1, Solute carrier family 22 member 2 (Homo sapiens, UniProt O15244); test: Inhibition of human OCT2 transfected in HEK293 cells assessed as decrease in intracellular ASP accumulation […] incubated for 10 mins followed by incubation with ASP for 5 mins by fluorescence based analysis; assay type: cell-based; settings: hek293, 0.25 h, time 15 min
T1 sequence (O15244 whole entry): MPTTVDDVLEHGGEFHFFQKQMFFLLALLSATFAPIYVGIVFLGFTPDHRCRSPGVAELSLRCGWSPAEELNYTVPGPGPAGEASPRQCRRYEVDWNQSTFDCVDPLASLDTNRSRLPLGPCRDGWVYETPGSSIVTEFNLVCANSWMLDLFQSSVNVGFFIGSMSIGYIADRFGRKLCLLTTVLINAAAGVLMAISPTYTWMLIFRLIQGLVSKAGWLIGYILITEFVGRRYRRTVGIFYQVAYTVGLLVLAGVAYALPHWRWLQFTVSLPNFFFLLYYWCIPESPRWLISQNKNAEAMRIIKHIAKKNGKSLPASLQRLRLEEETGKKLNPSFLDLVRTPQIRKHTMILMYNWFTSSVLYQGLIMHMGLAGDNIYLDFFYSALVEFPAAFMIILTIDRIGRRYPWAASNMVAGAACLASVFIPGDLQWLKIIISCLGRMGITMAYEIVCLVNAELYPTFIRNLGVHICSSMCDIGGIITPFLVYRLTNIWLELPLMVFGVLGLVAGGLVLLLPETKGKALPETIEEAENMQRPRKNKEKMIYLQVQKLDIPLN

[21] = Observed MRT (0 to infinity) in Sprague-Dawley rat at 5 mg/kg, iv; assay type: ADME, organism-based; settings: in vivo
[22] = Observed apparent volume of distribution in Sprague-Dawley rat at 5 mg/kg, iv; assay type: ADME, organism-based; settings: in vivo, read-out: Vz
[23] = AUC (0 to 24 hrs) in Sprague-Dawley rat at 10 mg/kg, po; assay type: ADME, organism-based; settings: in vivo
[24] = Observed AUC (0 to infinity) in Sprague-Dawley rat at 10 mg/kg, po; assay type: ADME, organism-based; settings: in vivo
[25] = Observed MRT (0 to infinity) in Sprague-Dawley rat at 10 mg/kg, po; assay type: ADME, organism-based; settings: in vivo
[26] = test system: Escherichia coli; test: Antibacterial activity against Escherichia coli ATCC25922 infected in pyelonephritis C57BL/6 mouse model assessed as decrease in kidney swelling at 3 to 10 mg/kg, iv qd for 3 days administered at 2 days post-infection; assay type: functional, organism-based; settings: dose 3-10 mg/kg, time 3.0 day
[27] = test system: Escherichia coli; test: Antibacterial activity against Escherichia coli ATCC25922 infected in pyelonephritis C57BL/6 mouse model assessed as decrease in bacterial load in kidney at 3 to 10 mg/kg, iv qd for 3 days administered at 2 days post-infection; assay type: functional, organism-based; settings: dose 3-10 mg/kg, time 3.0 day
[28] = test system: Escherichia coli; test: Antibacterial activity against Escherichia coli ATCC25922 infected in pyelonephritis C57BL/6 mouse model assessed as decrease in MPO activity in kidney at 3 to 10 mg/kg, iv qd for 3 days administered at 2 days post-infection; assay type: functional, organism-based; settings: dose 3-10 mg/kg, time 3.0 day

For `C=C[C@]1(C)C[C@@H](OC(=O)CSc2nc3cc[n+](Cc4ccc(C)cc4)cc3[nH]2)[C@]2(C)[C@H](C)CC[C@]3(CCC(=O)[C@H]32)[C@@H](C)[C@@H]1O.[Br-]`, the MIC [1] was < 1 µg/mL, the MIC [2] was 4 µg/mL and the MIC [3] was 4 µg/mL. For the same compound, the MIC [4] was 4 µg/mL, the CC50 at 24 h [5] was > 100 µM and the IC50 [6] was 71.5 µM. For the same compound, the MIC [7] was < 0.008 µg/mL, the MIC [8] was < 0.04 µg/mL and the MIC [9] was < 0.04 µg/mL. For the same compound, the MIC [10] was < 0.04 µg/mL, the PAE [11] was 1.78 h and the Activity [12] was “Dose-dependent-effect”. The Activity [13] was “Active; Almost Complete Eradication Of Bacteria Observed”, the Activity [14] was “Active” and the Activity [15] was “Active”. The Activity [16] was “Active; Superior Efficacy Over Valnemulin Observed”, the Activity [17] was “Active; Nearly Restoration Of Normal Histology Observed” and the Activity [18] was “Active; Nearly Restoration Of Normal Histology Observed”. The Activity [19] was “Active”, the “inhibition (INH)” value [20] was “Not_active” and the MRT inf [21] was 1.14 h. The Vd [22] was 0.511 L/kg, the AUC(0-t) [23] was 14600 ng·h/mL and the AUC(0-inf) [24] was 15800 ng·h/mL. The MRT inf [25] was 2.46 h, the Activity [26] was “Active” and the Activity [27] was “Active”. For the same compound, the Activity [28] was “Active”.
